Reference: patent US20160250213A1, “FORMULATIONS OF AZAINDOLE COMPOUNDS” (priority 2013, published 2016)
Where two headings read alike, the source gives them in different places. Marks after values point to notes of the source that are not given here.

Assays:
[1] = ambient temperature
A/Puerto Rico/8/34 = format: cell-based, influenza A virus
[2] = test system: Influenza A/California/04/2009 (pndH1N1) virus; format: in vivo, BALB/c mice; conditions: 10 mg/kg p.o. twice a day for 10 days starting 2 hours prior to virus exposure
[3] = test system: Influenza A/Victoria/3/75 (H3N2) virus; format: in vivo, BALB/c mice; conditions: 10 mg/kg p.o. twice a day for 10 days starting 2 hours prior to virus exposure
influenza A virus = format: in vivo, mice
influenza A = test system: influenza A; design: species or system mice; conditions: mouse, in vivo

O=C(O)[C@H]1C2CCC(CC2)C1Nc1nc(-c2c[nH]c3ncc(F)cc23)ncc1F (stereo partly drawn) [amorphous compound (1)]
Amorphous: Resulting Form ([1]; solvent 1,1,2-Trichloroethane) | Resulting Form ([1]; solvent 1,2-Dichloroethane) | Resulting Form ([1]; solvent 1,2-Dimethoxyethane) | Resulting Form ([1]; solvent Acetonitrile) | Resulting Form ([1]; solvent Anisole) | Resulting Form ([1]; solvent Butyl acetate) | Resulting Form ([1]; solvent Chlorobenzene) | Resulting Form ([1]; solvent Chloroform) | Resulting Form ([1]; solvent Cumene) | Resulting Form ([1]; solvent Cyclohexane) | Resulting Form ([1]; solvent Dichloromethane) | Resulting Form ([1]; solvent Ethyl acetate) | Resulting Form ([1]; solvent Ethyl ether) | Resulting Form ([1]; solvent Formamide) | Resulting Form ([1]; solvent Hexane) | Resulting Form ([1]; solvent Isobutyl acetate) | Resulting Form ([1]; solvent Isopropyl acetate) | Resulting Form ([1]; solvent Methylbutyl ketone) | Resulting Form ([1]; solvent Methylcyclohexane) | Resulting Form ([1]; solvent Nitromethane) | Resulting Form ([1]; solvent Pentane) | Resulting Form ([1]; solvent Propyl acetate) | Resulting Form ([1]; solvent Tetralin) | Resulting Form ([1]; solvent Toluene) | Resulting Form ([1]; solvent Water) | Resulting Form ([1]; solvent t-Butylmethylether) | Resulting Form ([1]; solvent xylene)
Solvate (1:1): Resulting Form ([1]; solvent 1,4-Dioxane) | Resulting Form ([1]; solvent 1-Butanol)
Solvate(1:1): Resulting Form ([1]; solvent 1-Pentanol) | Resulting Form ([1]; solvent 2-Butanol) | Resulting Form ([1]; solvent 2-Methy-1-propanol) | Resulting Form ([1]; solvent 2-Propanol) | Resulting Form ([1]; solvent Ethyl formate) | Resulting Form ([1]; solvent Methyl tetrahydrofuran) | Resulting Form ([1]; solvent Methylethyl ketone) | Resulting Form ([1]; solvent Tetrahydrofuran)
No signal: Resulting Form ([1]; solvent 1-Propanol) | Resulting Form ([1]; solvent 2-Ethoxyethanol) | Resulting Form ([1]; solvent 2-Methoxyethanol) | Resulting Form ([1]; solvent Dimethylsulfoxide) | Resulting Form ([1]; solvent Formic acid) | Resulting Form ([1]; solvent N,N-Dimethylformamide) | Resulting Form ([1]; solvent N-Methylpyrrolidinone)
Solvate: Resulting Form ([1]; solvent 3-Methyl-1-butanol) | Resulting Form ([1]; solvent Acetone) | Resulting Form ([1]; solvent Ethylene glycol) | Resulting Form ([1]; solvent Heptane) | Resulting Form ([1]; solvent Methanol) | Resulting Form ([1]; solvent Methyl acetate) | Resulting Form ([1]; solvent N,N-Dimethylacetamide) | Resulting Form ([1]; solvent acetic acid)

NC(=O)c1nc(F)c[nH]c1=O [favipiravir]
317: Synergy Volume, 95% Confidence (A/Puerto Rico/8/34)
0.89: C.I. (combination index) values at the 50% effect level (A/Puerto Rico/8/34)

CC(=O)N[C@H]1[C@H]([C@H](O)[C@H](O)CO)OC(C(=O)O)=C[C@@H]1N=C(N)N [Zanamivir]
268: Synergy Volume, 95% Confidence (A/Puerto Rico/8/34)
0.64: C.I. (combination index) values at the 50% effect level (A/Puerto Rico/8/34)

CCOC(=O)C1=C[C@@H](OC(CC)CC)[C@H](NC(C)=O)[C@@H](N)C1 [Oseltamivir, reference compound]
1.0: Mean Lung Parameters (Day 6): Score (hemorrhage, 0 to 4) [2]
0.58: C.I. (combination index) values at the 50% effect level (A/Puerto Rico/8/34)
≤ 24 h: dosing initiation post infection up to which complete protection is provided (influenza A virus; 10 mg/kg BID)
7.0: MDD ± SD (mean day of death of mice that died on or before day 21) [3]
10/10***: Survivors/Total [2]
−0.15 Log10: Log10 Reduction vs. Vehicle (influenza A)
survived: survival (influenza A virus; 10 mg/kg BID, same experiment (prophylactic)) | survival (influenza A virus; mouse, in vivo)
1.7 ± 1.1: Mean Lung Parameters (Day 6): Score (hemorrhage, 0 to 4) [3]
178 mg: Mean Lung Parameters (Day 6): Weight [2]
7.9 Log10 CCID50/g: Mean Lung Parameters (Day 6): Virus Titer [2]
9/10***: Survivors/Total [3]
218 ± 24 mg: Mean Lung Parameters (Day 6): Weight [3]
6.05 Log10 TCID50: Lung Viral Titer (influenza A; 10 mg/kg)
7.0 ± 0.3 Log10 CCID50/g: Mean Lung Parameters (Day 6): Virus Titer [3]

CCC(CC)O[C@@H]1C=C(C(=O)O)C[C@H](N)[C@H]1NC(C)=O [oseltamivir carboxylate]
312: Synergy Volume, 95% Confidence (A/Puerto Rico/8/34; Bliss Independence (Macsynergy), in combination with Compound (1))
